The data set has as its system NMFI female mice. As to the kind of experiment: toxicity of the dipeptide by injection to mice. It is filed as in vivo. Particulars: 100 μg per kg bodyweight, test solution 4 mg/ml in 0.9% NaCl. How it is done:
The dipeptide of Example 13 was diluted in 0.9% NaCl) to a test solution concentration of 4 mg/ml. The peptide was administered by injection to NMFI female mice in a dose of 100 μg per kg bodyweight.

Bridge positions count the residues as written; N and C are the ends. Ends that are not written are not given here. I, II: the chains in the order shown.

Take “I: WIIPGLNPLVGGGKLYSPTSILCG-NH2 / II: KALGPGATLQTPWTACQGVG-NH2 (disulfide I:23-II:16) [Example 13]”: the toxicological effects result is reported as “No toxicological effects were observed”.

The values are drawn from patent US7709004B2, “Method of producing an HIV-1 immune response” (Bionor Immuno AS, priority 1999, dated 2010).
